In US10525088B2, “Lactic acid bacterial immunopotentiating activity-increasing composition and method for increasing immunopotentiating activity of lactic acid bacteria” (Kirin Holdings Kabushiki Kaisha, priority 2014, dated 2020):

Tested on: dendritic cells induced from myeloblasts
Assay: Interferon-α production by dendritic cells induced from mouse myeloblasts (Flt-3L), cultured with JCM5805 and sample
Type: cell-based, mice
Conditions: 0.1 (w/v) % JCM5805 + 0.25 (w/v) % sample; myeloblast-derived dendritic cells; 24 hours
Protocol: Medium was inoculated with 1 ml of the obtained cell suspension and the culture was incubated at 37° C., 5% CO2 in a CO2 incubator for 1 week to induce dendritic cells. […] The samples were the lactic acid bacteria only, sucrose palmitate, and Ryoto Sugar Ester […] (mainly containing sucrose palmitate) (Mitsubishi-Kagaku Foods Corporation).

Substance: sucrose palmitate
- change of interferon-α inducing activity of JCM5805 by the sample: increased
